Patent publication US20220362182A1, “METHODS FOR REVERSING HEPATIC STEATOSIS” (BRIGHTSEED, INC., priority 2020, published 2022)
“Also recorded” adds a separate entry of the source. Blank lines part the entries; values can stand above or below the compound they belong to.

Assays:
CYP26A1 mRNA = CYP26A1 mRNA in T6PNE cells; assay type: cell-based, human; conditions: 2 days, 0.25 mM palmitate, NCT 10 μM, 4-OH-RA 20 μM
Procedure: Quantitative PCR (Q-PCR) from in vitro cell culture experiments used total RNA purified using RNeasy Kits (Qiagen). For liver tissue samples, total RNA was isolated using Trizol (Invitrogen) and prepared for RNAseq (mouse liver DMSO and NCT, N=3). cDNA was amplified using 3 μg of total RNA using qScript cDNA SuperMix (Quanta BioSciences, Beverly, Mass., USA). QPCR analysis was performed using SYBR® Select Master Mix (Applied Biosystems) and ABI 7900HT (Applied Biosystems, Thermo Fisher Scientific). The Ct values of mRNA expression were then normalized to the 18 s rRNA values and are expressed as fold change over samples from mice fed normal chow for in vivo experiments or DMSO controls for cell culture experiments.

T6PNE cells = assay: fat clearance assay in palmitate-treated T6PNE cells (Oil Red O, Nile Red, triglyceride); assay type: cell-based, human; conditions: for fat clearance (stored fat by Oil Red O and Nile Red staining): 0.25 mM palmitate for 2 days; for effect on fat clearance induced by NCT: palmitate, inhibitor or siRNA plus NCT
Procedure: Oil red O and Nile Red staining were used to measure lipid accumulation. Oil Red O staining was done as known in the art. Briefly, fixed cells were incubated with Oil Red O solution (Poly Scientific) for 3 h, followed by photomicrography (Olympus, IX71). For Nile Red staining, dye (1: 500 in PBS from 1 mg/ml in ethanol stock, Sigma) was added for 30 mins and DAPI added for 10 mins at room temperature. Quantification of Nile Red staining was done with a Celigo imaging cytometer (Nexcelom Bioscience). More than 4000 cells were analyzed for each quantification. The number of Nile Redpositive cells was normalized to the DAPI-positive cell number for each well and fold change was calculated relative to a DMSO control well.
Palmitate (150 mM) (Sigma-Aldrich) was prepared in 50% ethanol and precomplexed with 15% fatty acid-free BSA (Research Organics, Cleveland, Ohio, USA) in a 37 C water shaker. BSA-precomplexed palmitate was used as a 12 mM stock solution for all assays with a final concentration of 0.25 mM palmitate in cell culture medium.
siRNAs were purchased from Ambion. For transfections, 24 μL of each siRNA (1 μM stock) was mixed with 90 μL of a 1:100 dilution of Lipofectamine RNAi MAX (Invitrogen, Waltham, Mass., USA) in Opti-MEM. Transfection was done in 24 well plates (Thermo Fisher Scientific, Waltham, Mass., USA), by incubation with cells for 30 min. at room temperature. One day after transfection, cells were transferred to 96 well plates (2000 cells per well) and incubated at 37° C. for an additional day. Forty-eight hours after transfection, either palmitate-BSA complex or BSA control plus or minus compounds was added for 2 days. For validation of siRNAs, transfected cells were harvested for RNA purification and QPCR for each gene 2 days after transfection.
The bicinchoninic acid (BCA) protein assay kit assay (Thermo scientific) was used to measure protein amount for DART, Western blotting and TG assays. Absorbance at 550 nm was determined using a plate reader.

HNF4α [1] = target: T1, HNF4α (Homo sapiens, UniProt P41235); assay: DARTS assay (HNF4α protease sensitivity) in HepG2 cells; assay type: binding; design: Total cell protein was extracted; endogenous in cells; host or cells: HepG2 cells; conditions: 40 or 80 μM for 16 h, subtilisin
T1 sequence (P41235 1-474): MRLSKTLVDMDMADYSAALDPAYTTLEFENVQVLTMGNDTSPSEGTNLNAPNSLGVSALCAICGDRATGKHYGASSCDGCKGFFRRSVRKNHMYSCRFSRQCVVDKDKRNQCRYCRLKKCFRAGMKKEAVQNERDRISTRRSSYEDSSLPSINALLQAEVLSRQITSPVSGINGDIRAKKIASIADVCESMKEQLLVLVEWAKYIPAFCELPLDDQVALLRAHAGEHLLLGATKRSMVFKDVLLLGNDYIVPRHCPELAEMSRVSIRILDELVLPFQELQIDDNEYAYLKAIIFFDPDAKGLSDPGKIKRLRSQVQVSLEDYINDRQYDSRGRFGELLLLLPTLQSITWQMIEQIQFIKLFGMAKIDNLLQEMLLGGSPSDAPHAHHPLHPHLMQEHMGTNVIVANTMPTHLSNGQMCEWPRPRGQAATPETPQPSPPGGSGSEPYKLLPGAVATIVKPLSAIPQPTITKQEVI
Procedure: DARTS assays were conducted as described in the art. HepG2 cells were treated with DMSO, BI6015, NCT, NFT at a concentration of 40 or 80 μM for 16 hr. Total cell protein was extracted and measured by BCA protein assay (Thermo Scientific). Each sample was split into two aliquots for proteolysis without (−) or with (+) Subtilisin (Sigma-Aldrich). Forty […] of cell lysate was incubated with or without protease (40 ng/ml subtilisin) for 35 min at room temperature.
(§1) Whole-cell extracts were prepared by incubation in RIPA buffer (Invitrogen) containing protease inhibitors (Calbiochem, San Diego, Calif.). Protein ([…]) was separated on 12% or 16% Tri-Glycine gels (Invitrogen) and transferred to Immobilon P membrane (0.2 μm pore, Millipore). After 1 h in phosphate-buffered saline-Tween (PBST) with 3% milk, membrane was incubated with antibodies to HNF4α (mouse, Novus, 1:1000), LC3B (rabbit, Novus, 1:500), p62 (SQSTM1, mouse, Santa Cruz, 1:1000) or β-actin (mouse, Santa Cruz, 1:2000), followed by secondary antibody conjugated to horseradish peroxidase (1:5000, Jackson Immune).

HNF4α [2] = conditions: previous finding, cited from earlier work
dihydroceramides = assay: lipidomic analysis of ceramides and dihydroceramides in T6PNE cells; assay type: cell-based, human
Procedure: Ceramides and dihydroceramides were measured in the UCSD Lipidomics Core Facility as previously described (Quehenberger et al.). Briefly, samples were extracted using the butanol: methanol (BUME) method. The lipid layer was collected and run on a Thermo-Vanquish UPLC (Thermo Scientific) with a Cortecs T3 (C18), 2.1 mm×150 mm; 1.8 uT3 column and a binary solvent system. Mass spectrometry employed a Thermo Q Exactive instrument with MS/MS data dependent acquisition scan mode and LipidSearch software (Thermo Fisher Scientific).

p62 = p62 Western blot in T6PNE cells; assay type: cell-based, human; conditions: NCT 10 μM, RA 10 μM, fenretinide
Procedure: as §1

human insulin promoter = assay: modified insulin promoter assay repressed with palmitate; assay type: cell-based; conditions: insulin promoter activity repressed with palmitate
Procedure: Alverine and benfluorex were ascertained in a modification of the insulin promoter assay in which the level of insulin promoter activity was repressed with palmitate. […] Cells were treated with 0.25 mM palmitate for 2 days in the presence and absence of NCT or NFT (10 μM).

HNF4α [3] = target: T1, HNF4α; assay: T6PNE insulin promoter assay (human insulin promoter-GFP transgene); assay type: cell-based; design: endogenous in cells; host or cells: T6PNE cells; conditions: T6PNE cells, GFP-positive cells relative to DMSO
Procedure: The T6PNE insulin promoter assay has been described previously and was performed here with slight modifications as follows: T6PNE cells were seeded at 200 cells per well in 384-well tissue culture plates (Greiner Bio-One) in the presence of 0.5 μM tamoxifen. Compounds described herein in DMSO were dispensed with an Echo 555 Acoustic Liquid Handler (Beckman Coulter). Three days after compound addition, cells were fixed in 4% paraformaldehyde (USBio) for 15 min and stained with DAPI (0.167 μg/ml, Invitrogen). Blue (DAPI) and green (GFP) channels were imaged using a Celigo imaging cytometer (Nexcelom Bioscience). The number of GFPpositive cells was normalized to the DAPI-positive cell number and fold change calculated relative to the DMSO control.
T6PNE cells were maintained in RPMI (5.5mM glucose, Corning) supplemented with 10% fetal bovine serum (FBS, Sigma-Aldrich) and 1% penicillin-streptomycin (pen-strep, Gibco). Cells were maintained in 5% CO2 at 37° C. For the insulin promoter assay, 0.5 μM tamoxifen (Sigma-Aldrich) was added to T6PNE cell culture media. HepG2 or HeLa cells were cultured in DMEM (high glucose, Corning) supplemented with 10% FBS and 1% pen-strep and maintained at 5% CO2, 37° C.

[4] = clinical trials for type 2 diabetes; cited from earlier work

Compound: CC1=C(/C=C/C(C)=C/C=C/C(C)=C/C(=O)O)C(C)(C)CCC1O (centres unmarked) [4-OH RA, reference compound]
- CYP26A1 mRNA level (CYP26A1 mRNA): induced an increase in CYP26A1 mRNA
- fat clearance (stored fat by Oil Red O and Nile Red staining) (T6PNE cells): induced fat clearance from T6PNE cells

Compound: CCCCCCCCCCCCC/C=C/[C@@H](O)[C@@H](N)COP(=O)(O)O [S1P, sphingosine-1-phosphate]
- fat clearance (stored fat by Oil Red O and Nile Red staining) (T6PNE cells): did not have any effect on fat storage; also recorded: neither S1P nor FTY720 had any effect on fat clearance

Compound: CCC(CC)C(c1ccc(Nc2nc3ccccc3s2)cc1)n1cncn1 (centres unmarked) [talarazole]
- effect on fat clearance induced by NCT (T6PNE cells): inhibited fat clearance by NCT

- HNF4α proteolytic sensitivity / conformational change (HNF4α [1]): induced a conformational change in HNF4α
Compound: Cc1ccc([N+](=O)[O-])cc1S(=O)(=O)n1c(C)nc2ccccc21 [BI6015]
- hepatic steatosis (HNF4α [2]; in vitro and in vivo): caused hepatic steatosis in vitro and in vivo
- HNF4α expression in the liver (HNF4α [2]; in vivo): caused loss of HNF4a expression in the liver; also recorded: caused loss of HNF4α expression in the liver

Compound: CC1=C(/C=C/C(C)=C/C=C/C(C)=C/C(=O)Nc2ccc(O)cc2)C(C)(C)CCC1 [Fenretinide, fenretinide, reference compound]
- dihydroceramide production (dihydroceramides; 2 days after treatment): induced multiple identical dihydroceramides
- ceramide (Cer)/dihydroceramide (DH-Cer) ratio (dihydroceramides; NCT+RA 10 μM, fenretinide 5 μM): substantial decrease
- fat clearance (stored fat by Oil Red O and Nile Red staining) (T6PNE cells): strongly positive
- fat clearance (stored fat by Oil Red O and Nile Red staining) (T6PNE cells; listed as fenretinide): induced fat clearance from T6PNE cells
- p62 protein expression normalized to actin (p62): had a statistically significant effect

Compound: CCN(CCCc1ccccc1)CCCc1ccccc1 [alverine, reference compound]
- fatty acid-mediated repression of the human insulin promoter (human insulin promoter): reversed the fatty acid-mediated repression of the human insulin promoter
- insulin promoter activity / HNF4α activation (HNF4α [3]): relatively weak activators; also recorded: fairly weak HNF4α activators

Compound: CCCCCCCCCCCCCC1=C([C@H](O)[C@@H](CO)NC(=O)CCCCCCC)C1 [GT-11, N-[(1R,2S)-2-hydroxy-1-hydroxymethyl-2-(2-tridecyl-1-cyclopropenyl)ethyl] octanamide]
- fat clearance (stored fat by Oil Red O and Nile Red staining) (T6PNE cells): strongly positive; also recorded: increase fat clearance

Compound: CC(Cc1cccc(C(F)(F)F)c1)NCCOC(=O)c1ccccc1 (centres unmarked) [benfluorex, reference compound]
- fatty acid-mediated repression of the human insulin promoter (human insulin promoter): reversed the fatty acid-mediated repression of the human insulin promoter
- HbA1c [4]: effective at reducing HbA1c
- insulin promoter activity / HNF4α activation (HNF4α [3]): relatively weak activators; also recorded: fairly weak HNF4α activators

Compound: Nn1nnc2ccccc21 [ABT]
- effect on fat clearance induced by NCT (T6PNE cells): inhibited fat clearance by NCT

Compound: CCCCCCCCc1ccc(CCC(N)(CO)CO)cc1 [FTY720]
- fat clearance (stored fat by Oil Red O and Nile Red staining) (T6PNE cells): neither S1P nor FTY720 had any effect on fat clearance

Compound: dihydroceramide
- fat clearance (stored fat by Oil Red O and Nile Red staining) (T6PNE cells): active at inducing fat clearance

Compound: O=C(Oc1nsnc1N1CCCCC1)N1CCCCC1 [Lalistat 2]
- effect on fat clearance induced by NCT (T6PNE cells): eliminated the ability of N-trans-caffeoyltyramine to effect fat clearance; also recorded: inhibited the ability of NCT to promote fat clearance
- effect on fat clearance induced by NCT (T6PNE cells; listed as Lalistat2): inhibits the effect of NCT on fat clearance
